Test: xn = mol fraction of the nth substance listed
Settings: Fluid (supercritical or subcritical phases), isochoric method

FC(C(F)(F)F)C(F)(F)F [1,1,1,2,3,3,3-heptafluoropropane] + CCF
Settings	mass density [kg/m3]
318.18 K, 961.3 kPa, x2 = 0.8032	441.9
323.18 K, 987.1 kPa, x2 = 0.8032	441.8
323.19 K, 1112.7 kPa, x2 = 0.739	520.8
328.18 K, 1011.6 kPa, x2 = 0.8032	441.8
328.19 K, 1144.3 kPa, x2 = 0.739	520.7
333.18 K, 1034.4 kPa, x2 = 0.8032	441.7
333.18 K, 1439.9 kPa, x2 = 0.8036	671.6
333.19 K, 1173.6 kPa, x2 = 0.739	520.7
333.19 K, 1516.7 kPa, x2 = 0.811	717.6
338.18 K, 1058.6 kPa, x2 = 0.8032	441.7
338.18 K, 1369.5 kPa, x2 = 0.44	660.6
338.18 K, 1481.2 kPa, x2 = 0.8036	671.6
338.18 K, 1560.1 kPa, x2 = 0.811	717.5
338.19 K, 1202.9 kPa, x2 = 0.739	520.7
343.18 K, 1231.3 kPa, x2 = 0.739	520.6
343.18 K, 1519.5 kPa, x2 = 0.8036	671.5
343.18 K, 1601.7 kPa, x2 = 0.811	717.5
343.19 K, 1081.5 kPa, x2 = 0.8032	441.7
343.19 K, 1413.6 kPa, x2 = 0.44	660.5
343.19 K, 1712.3 kPa, x2 = 0.627	835.4
348.15 K, 2241.8 kPa, x2 = 0.8392	1112.1
348.18 K, 1104.1 kPa, x2 = 0.8032	441.6
348.18 K, 1260.2 kPa, x2 = 0.739	520.6
348.18 K, 1453.8 kPa, x2 = 0.44	660.5
348.18 K, 1557.8 kPa, x2 = 0.8036	671.4
348.19 K, 1766.5 kPa, x2 = 0.627	835.3
348.2 K, 1643.2 kPa, x2 = 0.811	717.4
353.15 K, 2312 kPa, x2 = 0.8392	1112
353.18 K, 1127 kPa, x2 = 0.8032	441.6
353.18 K, 1287.6 kPa, x2 = 0.739	520.5
353.19 K, 1493.5 kPa, x2 = 0.44	660.4
353.19 K, 1594.5 kPa, x2 = 0.8036	671.4
353.19 K, 1683.4 kPa, x2 = 0.811	717.3
353.19 K, 1818 kPa, x2 = 0.627	835.2
358.17 K, 1314.9 kPa, x2 = 0.739	520.5
358.17 K, 1532 kPa, x2 = 0.44	660.3
358.18 K, 1148.5 kPa, x2 = 0.8032	441.6
358.18 K, 1631.3 kPa, x2 = 0.8036	671.3
358.19 K, 1722.8 kPa, x2 = 0.811	717.3
358.19 K, 1868.1 kPa, x2 = 0.627	835.2
358.23 K, 2381.4 kPa, x2 = 0.8392	1111.9
363.14 K, 2448.2 kPa, x2 = 0.8392	1111.8
363.19 K, 1171.1 kPa, x2 = 0.8032	441.5
363.19 K, 1569.8 kPa, x2 = 0.44	660.3
363.19 K, 1761.7 kPa, x2 = 0.811	717.2
363.19 K, 1917 kPa, x2 = 0.627	835.1
363.2 K, 2459.6 kPa, x2 = 0.4954	1290.6
363.21 K, 1667 kPa, x2 = 0.8036	671.3
363.31 K, 1342.8 kPa, x2 = 0.739	520.4
368.14 K, 1369.4 kPa, x2 = 0.739	520.4
368.14 K, 1800.8 kPa, x2 = 0.811	717.2
368.16 K, 1608 kPa, x2 = 0.44	660.2
368.16 K, 1966 kPa, x2 = 0.627	835
368.17 K, 1703 kPa, x2 = 0.8036	671.2
368.18 K, 2515 kPa, x2 = 0.8392	1111.7
368.18 K, 2548.7 kPa, x2 = 0.4954	1290.5
368.29 K, 1193.9 kPa, x2 = 0.8032	441.5
373.04 K, 1215 kPa, x2 = 0.8032	441.5
373.15 K, 1644.9 kPa, x2 = 0.44	660.2
373.16 K, 1839.4 kPa, x2 = 0.811	717.1
373.18 K, 1396.2 kPa, x2 = 0.739	520.4
373.18 K, 1738.7 kPa, x2 = 0.8036	671.2
373.18 K, 2580 kPa, x2 = 0.8392	1111.6
373.18 K, 2636.7 kPa, x2 = 0.4954	1290.4
373.19 K, 2014.5 kPa, x2 = 0.627	835
376.18 K, 2687.7 kPa, x2 = 0.4954	1290.3
378.17 K, 2644.8 kPa, x2 = 0.8392	1111.5
378.23 K, 1774.6 kPa, x2 = 0.8036	671.1
378.23 K, 2063.3 kPa, x2 = 0.627	834.9
378.25 K, 1422.5 kPa, x2 = 0.739	520.3
378.25 K, 1681.3 kPa, x2 = 0.44	660.1
378.25 K, 1876.9 kPa, x2 = 0.811	717
378.29 K, 1236.9 kPa, x2 = 0.8032	441.4
379.23 K, 2739.1 kPa, x2 = 0.4954	1290.3
382.19 K, 2788.4 kPa, x2 = 0.4954	1290.2
383.08 K, 1448.6 kPa, x2 = 0.739	520.3
383.17 K, 2708.3 kPa, x2 = 0.8392	1111.4
383.2 K, 2110.6 kPa, x2 = 0.627	834.8
383.21 K, 1718.2 kPa, x2 = 0.44	660.1
383.21 K, 1809.6 kPa, x2 = 0.8036	671.1
383.21 K, 1915.8 kPa, x2 = 0.811	717
383.22 K, 1259.2 kPa, x2 = 0.8032	441.4
385.22 K, 2838.9 kPa, x2 = 0.4954	1290.1
388.17 K, 2771 kPa, x2 = 0.8392	1111.3
388.18 K, 1279.7 kPa, x2 = 0.8032	441.3
388.18 K, 2156.7 kPa, x2 = 0.627	834.8
388.19 K, 1754.7 kPa, x2 = 0.44	660
388.19 K, 1844.5 kPa, x2 = 0.8036	671
388.19 K, 1953.2 kPa, x2 = 0.811	716.9
388.19 K, 2887.9 kPa, x2 = 0.4954	1290.1
388.32 K, 1475.8 kPa, x2 = 0.739	520.2
391.22 K, 2937.4 kPa, x2 = 0.4954	1290
393.18 K, 1501.3 kPa, x2 = 0.739	520.2
393.18 K, 1790.2 kPa, x2 = 0.44	660
393.18 K, 1879 kPa, x2 = 0.8036	670.9
393.18 K, 1990.4 kPa, x2 = 0.811	716.9
393.18 K, 2203.2 kPa, x2 = 0.627	834.7
393.21 K, 1301.7 kPa, x2 = 0.8032	441.3
393.22 K, 2834 kPa, x2 = 0.8392	1111.2
394.18 K, 2985.9 kPa, x2 = 0.4954	1289.9
397.15 K, 3033.4 kPa, x2 = 0.4954	1289.9
398.16 K, 1322.9 kPa, x2 = 0.8032	441.3
398.16 K, 1912.8 kPa, x2 = 0.8036	670.9
398.16 K, 2248.3 kPa, x2 = 0.627	834.6
398.17 K, 1527.2 kPa, x2 = 0.739	520.1
398.17 K, 1825.4 kPa, x2 = 0.44	659.9
398.17 K, 2027.2 kPa, x2 = 0.811	716.8
398.21 K, 2896 kPa, x2 = 0.8392	1111.2
400.15 K, 3082 kPa, x2 = 0.4954	1289.8
403.14 K, 1344.2 kPa, x2 = 0.8032	441.2
403.15 K, 1946.2 kPa, x2 = 0.8036	670.8
403.16 K, 1553.2 kPa, x2 = 0.739	520.1
403.16 K, 1860.1 kPa, x2 = 0.44	659.8
403.17 K, 2293.4 kPa, x2 = 0.627	834.5
403.19 K, 2956.6 kPa, x2 = 0.8392	1111.1
403.19 K, 3129.8 kPa, x2 = 0.4954	1289.8
403.2 K, 2063.9 kPa, x2 = 0.811	716.8

From the NIST ThermoML archive (doi:10.1016/j.fluid.2008.04.022)
